Measured values taken from PMC10800708, “Efficacies and ADME properties of redox active methylene blue and phenoxazine analogues for use in new antimalarial triple drug combinations with amino-artemisinins” (Frontiers in Pharmacology, 2024).
Where two headings read alike, the source gives them in different places.

Legend:
[1] = system: Chinese Hamster Ovary (CHO) cell line, CHO-K1; assay: MTT cytotoxicity assay; type: cell-based; settings: for IC50: Cricetulus griseus, CHO cells, MTT; for Selectivity index CHO/resistant Pf strain: cytotoxicity IC50/activity IC50, CHO/DD2; for Selectivity index CHO/sensitive Pf strain: cytotoxicity IC50/activity IC50, CHO/NF54
Procedure: Cytotoxicity assays were conducted against the Chinese Hamster Ovary (CHO) cell line, ATCC CCL-61, strain CHO-K1. […] Cells were grown at 37°C in a humidified atmosphere of 5% CO2 and maintained by passage. Cells lines were seeded in 96-well microtitre plates at 10^4 cells/well in cell medium. […] DMSO (100 µL) was added to dissolve the MTT formazan precipitate, and the plates were gently agitated for 2 min to ensure homogeneity. Absorbance was measured at 540 nm using a Turner BioSystems, Inc. ModulusTM II Microplate Reader. The data were analyzed by nonlinear regression analysis using the GraphPad PRISM version 5.00 program to determine the IC50 of each compound.

[2] = Metabolic stability in human liver microsomes; type: in vitro ADME
Procedure: (§1) Eq. 4 Predicted t1/2 t1/2=−0.693/λ (4) Where λ is the slope of the Ln % parent remaining vs. time curve. • v. Plasma protein binding. Plasma protein binding was determined in pooled human plasma using an ultracentrifugation method. Stock solutions of test compounds (10 mM) were diluted in phosphate buffer and spiked into plasma in deep well 96-well plates (10 µM). An aliquot of each compound was immediately precipitated with ice cold acetonitrile containing the internal standard carbamazepine (0.1 μM). These served as total concentration samples. After incubation in a water bath at 37°C for 1 h, the samples were transferred to ultracentrifuge tubes in duplicate and centrifuged for 4 h at 37°C and 30,000 g (Optima L-80XP, Beckman). Following centrifugation, the supernatant was transferred to the plate containing the total concentration samples and precipitated with ice cold acetonitrile containing the internal standard. Analyte concentrations of all compounds were determined via LC-MS/MS (reverse phase Gemini NX-C18 column and Shimadzu HPLC coupled with an AB Sciex 3200 Q TRAP MS) as described above. • vi. Metabolic stability. A 5-point metabolic stability assay in human and mouse liver microsomes were performed in duplicate in 96-well plates. […] The cofactor NADPH was added, and the reactions were subsequently stopped at time points 5, 10, 30 and 60 min by removal of an aliquot and quenching with ice cold acetonitrile containing the internal standard. The supernatant of all samples was analysed via LC-MS/MS analysis (reverse phase Gemini NX-C18 column and Shimadzu HPLC and AB Sciex 3200 Q TRAP MS) as described above.

[3] = Kinetic solubility in PBS; type: physicochemical; settings: phosphate buffer saline (PBS), aqueous buffer, kinetic from dmso stock
Procedure: . […] The aqueous mobile phase was water with 0.1% formic acid and the organic mobile phase was acetonitrile with 0.1% formic acid. The gradient method has a flow rate of 0.8 mL/min, with a total run time of 2.5 min starting at 5% organic and increasing to 95% at 1.4 min, holding for 40 s before returning to 5% to re-equilibrate the column. • ii. Lipophilicity. Stock solutions (10 mM) of compounds were diluted to 100 μM in 96-well deep-well plate containing 300 µL of 1-octanol and 300 µL of phosphate buffer at pH 7.4. The plate was agitated on an orbital shaker at 750 rpm for 2 h. The organic and buffer layers of each well were transferred separately to a new analysis plate. The samples were analysed with the HPLC diode array detection as described for kinetic solubility. Samples from both layers were analysed to determine LogD7.4 values. • iii. Passive permeability. A parallel artificial membrane permeation assay (PAMPA) was used to assess the passive permeability of compounds with a 96-well MultiScreen filter plate ([…] pore size, Millipore). The filter plate was precoated with 5% hexadecane in hexane. Stock solutions of compounds were diluted to 1 mM in a donor buffer (pH 6.5). Lucifer yellow was added to the apical wells of the precoated MultiScreen plate containing compound donor solution. The donor buffer solutions were spiked with each test compound (1 mM). The acceptor-buffer solution was prepared by adding 10 μL DMSO to 990 μL acceptor buffer (pH 7.4) and 250 μL were added to the basolateral (acceptor) wells. The donor plate was carefully inserted into the acceptor plate and incubated at room temperature for 4 h. After the incubation period, 50 μL of samples from the acceptor plate were transferred to a round bottom 96-well plate, together with 30 μL of donor buffer for matrix matching. Theoretical equilibrium samples for each test compound were prepared by adding 150 μL of donor solutions to 250 μL acceptor solutions and left at room temperature. These theoretical equilibrium samples represent complete transfer of the compound into the donor well. For the theoretical equilibrium samples, 80 μL were added to the analysis plate. Lastly, 160 μL of the internal standard carbamazepine (0.1 μM) was added to all acceptor and equilibrium samples. A portion of the sample containing Lucifer yellow was analyzed on a BioRad iMarkTM Microplate Absorbance Reader (BioRad, Hercules, CA, United States; […]. Samples were analysed using reverse phase Gemini NX-C18 column (5 μm, 2.1 mm × 50 mm) with a Shimadzu HPLC coupled with an AB Sciex 3200 Q TRAP MS). […]. Plasma stability. Stock solutions of compounds in DMSO (10 mM) were used to spike pooled human plasma. 90 μL of each sample was transferred in duplicate to 6 different wells of a 96-deep well plate. An aliquot of each sample was immediately quenched with ice cold acetonitrile containing the internal standard carbamazepine (0.1 µM), after which the plate was incubated in a water bath (37°C for […]). Aliquots of samples were removed at 5, 15, 40, 60 and 180 min and quenched with ice cold acetonitrile. After samples of the final time point were precipitated, the supernatant was transferred to a round bottom 96-well plate for analysis by LC-MS/MS using a reverse phase Gemini NX-C18 column (5 μm, 2.1 mm × 50 mm) with a Shimadzu HPLC coupled with an AB Sciex 3200 Q TRAP MS) operated at unit resolution in the multiple reaction monitoring (MRM) mode. The aqueous phase consisted of water with 0.1% formic acid and the organic mobile phase consisted of methanol and acetonitrile (1:1, (v/v)) with 0.1% formic acid. […]. The peak area ratios were used to calculate the amount of parent compound remaining and t1/2 in plasma, using the following equations.

[4] = Metabolic stability in mouse liver microsomes; type: in vitro ADME
Procedure: as §1

[5] = system: Plasmodium falciparum DD2; assay: Parasite lactate dehydrogenase (pLDH) assay over 72 h, CQ-resistant strain; type: cell-based; settings: for Resistance index: IC50 (resistant strain)/IC50 (sensitive strain), DD2/NF54; for IC50: Plasmodium falciparum, CQ-resistant DD2, pLDH 72 h, n = 3, read-out: Plasmodium falciparum IC50 DD2
Procedure: (§2) The assay was performed in quadruplicate. The data were analyzed by nonlinear regression analysis using the GraphPad PRISM version 5.00 program to determine the IC50 of each compound.

[6] = system: Plasmodium falciparum NF54; assay: Parasite lactate dehydrogenase (pLDH) assay over 72 h, CQ-sensitive strain; type: cell-based
Procedure: as §2

[7] = PBS pH 2, read-out: Predicted solubility pH 2
[8] = PBS pH 6.5, read-out: Predicted solubility pH 6.5
[9] = PBS pH 7.4, read-out: Predicted solubility pH 7.4
[10] = CQ-sensitive NF54, pLDH 72 h, n = 3, read-out: Plasmodium falciparum IC50 NF54
[11] = P. falciparum NF54, read-out: NF54 IC50 (dotted line in concentration-time figures)

| SMILES | IC50 [1] [nM] | Selectivity index CHO/resistant Pf strain [1] | Selectivity index CHO/sensitive Pf strain [1] | CLint scaled [2] [mL/min/kg] | solubility at 2 h [3, 7] [µM] | solubility at 2 h [3, 8] [µM] | solubility at 2 h [3, 9] [µM] | CLint scaled [4] [mL/min/kg] | Resistance index [5] | IC50 [5] [nM] | IC50 [6, 10] [nM] | IC50 [6, 11] [nM] |
| --- | --- | --- | --- | --- | --- | --- | --- | --- | --- | --- | --- | --- |
| CCN(CC)c1ccc2nc3c4ccccc4/c(=N\c4ccccn4)cc-3oc2c1 [PhX6] | 192000 ± 4600 | >1,000 | >1,000 | 20.2 | > 150 | < 5 | < 5 | 88.2 | 0.4 | 16.2 ± 2.4 | 41.8 ± 0.04 | 41 |
| CCN(CC)c1ccc2nc3ccc(=[N+](CC)CC)cc-3sc2c1 [AD01] | 74000 ± 9400 | >1,000 | >1,000 | 16.2 | > 150 | > 150 | > 150 | 80.6 | 0.5 | 11.9 ± 2.8 | 23.1 ± 2.5 | 23 |
